From PubChem BioAssay AID248 (DTP/NCI, 2004)
“And” between values parts separate entries of the source, which are not always exact repeats. Equal values may be shown once. Inconclusive results and toxic doses are left out.

System: L1210 leukemia ip in BDF1 mice, survival T/C
Assay: NCI In Vivo Anticancer Drug Screen. Data for tumor model L1210 Leukemia (intraperitoneal) in B6D2F1 (BDF1) mice
Conditions: endpoint: mean survival time, higher = longer survival
Method in brief: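 Survival endpoint. Drug-treated group vs vehicle group, expressed as T divided by C. Tumor passaged by transplantation.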

`O=C(Nc1ccc(C2=NCCN2)cc1)c1ccc(C(=O)Nc2ccc(C3=NCCN3)cc2)cc1` was tested, and the T/C (dose: 0.62 mg/kg/injection, schedule: Q#A X Z (ip), vehicle: saline) was 114 % of control, the T/C (dose: 0.63 mg/kg/injection, schedule: Q01DX Z (sc), vehicle: saline) was 104 % of control and the T/C (dose: 1.25 mg/kg/injection, schedule: Q01DX Z (ip), vehicle: other) was 287 % of control. For the same molecule, the T/C (dose: 1.25 mg/kg/injection, schedule: Q01DX Z (sc), vehicle: saline) was 101 % of control, the T/C (dose: 1.87 mg/kg/injection, schedule: Q01DX Z (ip), vehicle: carboxymethylcellulose (CMC)) was 112 % of control and the T/C (dose: 1.88 mg/kg/injection, schedule: Q03DX Z (ip), vehicle: saline) was 103 % of control. For the same molecule, the T/C (dose: 2.5 mg/kg/injection, schedule: Q01DX Z (ip), vehicle: other) was 158 % of control, the T/C (dose: 2.5 mg/kg/injection, schedule: Q01DX Z (sc), vehicle: saline) was 104 % of control and the T/C (dose: 3.75 mg/kg/injection, schedule: Q01DX Z (ip), vehicle: carboxymethylcellulose (CMC)) was 121 % of control. For the same molecule, the T/C (dose: 3.75 mg/kg/injection, schedule: Q03DX Z (ip), vehicle: saline) was 114 % of control, the T/C (dose: 4.4 mg/kg/injection, schedule: Q01DX001 (ip), vehicle: saline) was 103 % of control and the T/C (dose: 4.4 mg/kg/injection, schedule: Q07DX Z (ip), vehicle: saline) was 103 % of control. For the same molecule, the T/C (dose: 5.0 mg/kg/injection, schedule: Q01DX005 (iv), vehicle: saline) was 102 % of control, the T/C (dose: 5.0 mg/kg/injection, schedule: Q01DX Z (ip), vehicle: acid diluted with saline) was 243 % of control and the T/C (dose: 5.0 mg/kg/injection, schedule: Q01DX Z (ip), vehicle: other) was 179 % of control. For the same molecule, the T/C (dose: 5.0 mg/kg/injection, schedule: Q01DX Z (sc), vehicle: saline) was 101 % of control, the T/C (dose: 5.0 mg/kg/injection, schedule: Q#A X Z (ip), vehicle: saline) was 194 % of control and the T/C (dose: 7.5 mg/kg/injection, schedule: Q03DX Z (ip), vehicle: saline) was 115 % of control. The T/C (dose: 8.8 mg/kg/injection, schedule: Q01DX001 (ip), vehicle: saline) was 97 % of control and 112 % of control, the T/C (dose: 8.8 mg/kg/injection, schedule: Q07DX Z (ip), vehicle: saline) was 105 % of control and the T/C (dose: 10.0 mg/kg/injection, schedule: Q01DX005 (iv), vehicle: saline) was 103 % of control. The T/C (dose: 10.0 mg/kg/injection, schedule: Q01DX Z (ip), vehicle: acid diluted with saline) was 205 % of control, the T/C (dose: 10.0 mg/kg/injection, schedule: Q01DX Z (iv), vehicle: acid diluted with saline) was 123 % of control and the T/C (dose: 10.0 mg/kg/injection, schedule: Q01DX Z (sc), vehicle: acid diluted with saline) was 175 % of control. The T/C (dose: 10.0 mg/kg/injection, schedule: Q#A X Z (ip), vehicle: saline) was 291 % of control, the T/C (dose: 15.0 mg/kg/injection, schedule: Q01DX Z (ip), vehicle: carboxymethylcellulose (CMC)) was 168 % of control and 269 % of control and 197 % of control and the T/C (dose: 15.6 mg/kg/injection, schedule: Q01DX Z (sc), vehicle: other) was 181 % of control. The T/C (dose: 17.5 mg/kg/injection, schedule: Q01DX001 (ip), vehicle: saline) was 112 % of control and 264 % of control, the T/C (dose: 20.0 mg/kg/injection, schedule: Q01DX005 (iv), vehicle: saline) was 115 % of control and the T/C (dose: 20.0 mg/kg/injection, schedule: Q01DX Z (ip), vehicle: acid diluted with saline) was 158 % of control. For the same molecule, the T/C (dose: 20.0 mg/kg/injection, schedule: Q01DX Z (ip), vehicle: saline) was 316 % of control, the T/C (dose: 20.0 mg/kg/injection, schedule: Q01DX Z (sc), vehicle: acid diluted with saline) was 165 % of control and the T/C (dose: 20.0 mg/kg/injection, schedule: Q#A X Z (ip), vehicle: saline) was 178 % of control. For the same molecule, the T/C (dose: 30.0 mg/kg/injection, schedule: Q01DX Z (ip), vehicle: acid diluted with saline) was 182 % of control, the T/C (dose: 30.0 mg/kg/injection, schedule: Q01DX Z (ip), vehicle: carboxymethylcellulose (CMC)) was 320 % of control and the T/C (dose: 30.0 mg/kg/injection, schedule: Q03DX Z (ip), vehicle: saline) was 200 % of control. For the same molecule, the T/C (dose: 31.3 mg/kg/injection, schedule: Q01DX004 (im), vehicle: olive oil, sesame oil, peanut oil) was 97 % of control, the T/C (dose: 31.3 mg/kg/injection, schedule: Q01DX004 (im), vehicle: saline) was 104 % of control and the T/C (dose: 31.3 mg/kg/injection, schedule: Q01DX Z (ip), vehicle: other) was 112 % of control. For the same molecule, the T/C (dose: 31.3 mg/kg/injection, schedule: Q01DX Z (sc), vehicle: other) was 195 % of control, the T/C (dose: 35.0 mg/kg/injection, schedule: Q07DX Z (ip), vehicle: saline) was 160 % of control and the T/C (dose: 40.0 mg/kg/injection, schedule: Q01DX Z (ip), vehicle: saline) was 348 % of control. The T/C (dose: 40.0 mg/kg/injection, schedule: Q#A X Z (ip), vehicle: saline) was 210 % of control, the T/C (dose: 60.0 mg/kg/injection, schedule: Q01DX Z (ip), vehicle: acid diluted with saline) was 153 % of control and the T/C (dose: 60.0 mg/kg/injection, schedule: Q01DX Z (ip), vehicle: carboxymethylcellulose (CMC)) was 246 % of control. The T/C (dose: 60.0 mg/kg/injection, schedule: Q03DX Z (ip), vehicle: saline) was 304 % of control, the T/C (dose: 62.5 mg/kg/injection, schedule: Q01DX004 (im), vehicle: olive oil, sesame oil, peanut oil) was 100 % of control and the T/C (dose: 62.5 mg/kg/injection, schedule: Q01DX Z (ip), vehicle: other) was 111 % of control. For the same molecule, the T/C (dose: 62.5 mg/kg/injection, schedule: Q01DX Z (sc), vehicle: other) was 158 % of control, the T/C (dose: 70.0 mg/kg/injection, schedule: Q01DX001 (ip), vehicle: saline) was 156 % of control and 161 % of control and the T/C (dose: 70.0 mg/kg/injection, schedule: Q07DX Z (ip), vehicle: saline) was 205 % of control. For the same molecule, the T/C (dose: 80.0 mg/kg/injection, schedule: Q01DX Z (ip), vehicle: saline) was 183 % of control, the T/C (dose: 80.0 mg/kg/injection, schedule: Q#A X Z (ip), vehicle: saline) was 210 % of control and the T/C (dose: 120.0 mg/kg/injection, schedule: Q01DX Z (ip), vehicle: acid diluted with saline) was 176 % of control. For the same molecule, the T/C (dose: 120.0 mg/kg/injection, schedule: Q01DX Z (ip), vehicle: carboxymethylcellulose (CMC)) was 115 % of control and 204 % of control, the T/C (dose: 120.0 mg/kg/injection, schedule: Q03DX Z (ip), vehicle: saline) was 243 % of control and 252 % of control and the T/C (dose: 125.0 mg/kg/injection, schedule: Q01DX004 (im), vehicle: olive oil, sesame oil, peanut oil) was 100 % of control. The T/C (dose: 125.0 mg/kg/injection, schedule: Q01DX Z (ip), vehicle: other) was 97 % of control, the T/C (dose: 125.0 mg/kg/injection, schedule: Q01DX Z (sc), vehicle: other) was 161 % of control and the T/C (dose: 140.0 mg/kg/injection, schedule: Q01DX001 (ip), vehicle: saline) was 223 % of control. The T/C (dose: 140.0 mg/kg/injection, schedule: Q07DX Z (ip), vehicle: saline) was 282 % of control, the T/C (dose: 160.0 mg/kg/injection, schedule: Q01DX Z (ip), vehicle: saline) was 174 % of control and the T/C (dose: 160.0 mg/kg/injection, schedule: Q#A X Z (ip), vehicle: saline) was 176 % of control. For the same molecule, the T/C (dose: 250.0 mg/kg/injection, schedule: Q01DX004 (im), vehicle: olive oil, sesame oil, peanut oil) was 121 % of control, the T/C (dose: 250.0 mg/kg/injection, schedule: Q01DX004 (im), vehicle: saline) was 204 % of control and 208 % of control and the T/C (dose: 250.0 mg/kg/injection, schedule: Q01DX Z (sc), vehicle: other) was 168 % of control. The T/C (dose: 250.0 mg/kg/injection, schedule: Q01DX Z (sc), vehicle: saline) was 217 % of control, the T/C (dose: 280.0 mg/kg/injection, schedule: Q07DX Z (ip), vehicle: saline) was 250 % of control and 327 % of control and the T/C (dose: 320.0 mg/kg/injection, schedule: Q01DX Z (ip), vehicle: saline) was 162 % of control. For the same molecule, the T/C (dose: 480.0 mg/kg/injection, schedule: Q03DX Z (ip), vehicle: saline) was 194 % of control, the T/C (dose: 500.0 mg/kg/injection, schedule: Q01DX004 (im), vehicle: saline) was 262 % of control and the T/C (dose: 500.0 mg/kg/injection, schedule: Q01DX Z (sc), vehicle: saline) was 195 % of control. The T/C (dose: 560.0 mg/kg/injection, schedule: Q01DX001 (ip), vehicle: saline) was 184 % of control and 210 % of control, the T/C (dose: 560.0 mg/kg/injection, schedule: Q07DX Z (ip), vehicle: saline) was 261 % of control and the T/C (dose: 640.0 mg/kg/injection, schedule: Q01DX Z (ip), vehicle: saline) was 124 % of control. For the same molecule, the T/C (dose: 750.0 mg/kg/injection, schedule: Q01DX Z (sc), vehicle: saline) was 183 % of control and 290 % of control, the T/C (dose: 960.0 mg/kg/injection, schedule: Q03DX Z (ip), vehicle: saline) was 164 % of control and the T/C (dose: 1000.0 mg/kg/injection, schedule: Q01DX004 (im), vehicle: saline) was 267 % of control. The T/C (dose: 1112.0 mg/kg/injection, schedule: Q01DX001 (ip), vehicle: saline) was 157 % of control, the T/C (dose: 1500.0 mg/kg/injection, schedule: Q01DX Z (sc), vehicle: saline) was 215 % of control and the T/C (dose: 18.8 micrograms/kg/injection, schedule: Q01DX Z (ip), vehicle: saline) was 96 % of control. For the same molecule, the T/C (dose: 37.5 micrograms/kg/injection, schedule: Q01DX Z (ip), vehicle: saline) was 96 % of control, the T/C (dose: 75.0 micrograms/kg/injection, schedule: Q01DX Z (ip), vehicle: saline) was 100 % of control and the T/C (dose: 150.0 micrograms/kg/injection, schedule: Q01DX Z (ip), vehicle: saline) was 94 % of control. For the same molecule, the T/C (dose: 230.0 micrograms/kg/injection, schedule: Q01DX Z (ip), vehicle: carboxymethylcellulose (CMC)) was 98 % of control, the T/C (dose: 460.0 micrograms/kg/injection, schedule: Q01DX Z (ip), vehicle: carboxymethylcellulose (CMC)) was 118 % of control and the T/C (dose: 930.0 micrograms/kg/injection, schedule: Q01DX Z (ip), vehicle: carboxymethylcellulose (CMC)) was 113 % of control.
